In brackets after ≈: the same amount, converted by molar mass. Several values for one entry are separate records, joined by “and”; a condition that tells them apart may be missing. Equal values may be shown once. Values belong to the molecule of their own block, whether it stands above or below them.
What was measured:
[1] = target: 3',5'-cyclic-AMP phosphodiesterase 4D (Homo sapiens, UniProt Q08499)
Description: Inhibition of full length human PDE4D2 expressed in Escherichia coli BL21 by liquid scintillation counting

[2] = target: High affinity cGMP-specific 3',5'-cyclic phosphodiesterase 9A (Homo sapiens, UniProt O76083); experiment: Inhibition of human cloned PDE9A2 expressed in Escherichia coli BL21 by liquid scintillation counting
[3] = target: cGMP-dependent 3',5'-cyclic phosphodiesterase (Homo sapiens, UniProt O00408); experiment: Inhibition of human cloned PDE2A3 expressed in Escherichia coli BL21 by liquid scintillation counting
[4] = target: High affinity 3',5'-cyclic-AMP phosphodiesterase 7A (Homo sapiens, UniProt Q13946); experiment: Inhibition of human cloned PDE7A1 catalytic domain expressed in Escherichia coli BL21 by liquid scintillation counting
[5] = target: cGMP-specific 3',5'-cyclic phosphodiesterase (Homo sapiens, UniProt O76074); experiment: Inhibition of human cloned PDE5A1 expressed in Escherichia coli BL21 by liquid scintillation counting
PBMC = experiment: Inhibition of LPS-induced TNFalpha production in human PBMC; type: functional, cell-based
[6] = Solubility in heavy water; type: physicochemical

Sequence of High affinity 3',5'-cyclic-AMP phosphodiesterase 7A (Q13946 whole entry, the tested form may be a part): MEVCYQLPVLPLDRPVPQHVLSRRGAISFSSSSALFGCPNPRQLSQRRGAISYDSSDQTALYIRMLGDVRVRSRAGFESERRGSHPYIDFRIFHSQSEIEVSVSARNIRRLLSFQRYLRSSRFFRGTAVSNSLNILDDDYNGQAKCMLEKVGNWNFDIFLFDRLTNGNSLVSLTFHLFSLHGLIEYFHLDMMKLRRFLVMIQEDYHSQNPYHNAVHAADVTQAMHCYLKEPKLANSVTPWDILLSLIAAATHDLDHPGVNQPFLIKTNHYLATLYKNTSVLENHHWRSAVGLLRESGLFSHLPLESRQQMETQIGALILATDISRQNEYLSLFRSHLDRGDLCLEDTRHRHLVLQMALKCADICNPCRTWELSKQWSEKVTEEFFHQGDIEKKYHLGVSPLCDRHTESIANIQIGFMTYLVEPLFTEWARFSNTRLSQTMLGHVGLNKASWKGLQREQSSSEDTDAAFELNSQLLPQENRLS
Sequence of 3',5'-cyclic-AMP phosphodiesterase 4D (Q08499 whole entry): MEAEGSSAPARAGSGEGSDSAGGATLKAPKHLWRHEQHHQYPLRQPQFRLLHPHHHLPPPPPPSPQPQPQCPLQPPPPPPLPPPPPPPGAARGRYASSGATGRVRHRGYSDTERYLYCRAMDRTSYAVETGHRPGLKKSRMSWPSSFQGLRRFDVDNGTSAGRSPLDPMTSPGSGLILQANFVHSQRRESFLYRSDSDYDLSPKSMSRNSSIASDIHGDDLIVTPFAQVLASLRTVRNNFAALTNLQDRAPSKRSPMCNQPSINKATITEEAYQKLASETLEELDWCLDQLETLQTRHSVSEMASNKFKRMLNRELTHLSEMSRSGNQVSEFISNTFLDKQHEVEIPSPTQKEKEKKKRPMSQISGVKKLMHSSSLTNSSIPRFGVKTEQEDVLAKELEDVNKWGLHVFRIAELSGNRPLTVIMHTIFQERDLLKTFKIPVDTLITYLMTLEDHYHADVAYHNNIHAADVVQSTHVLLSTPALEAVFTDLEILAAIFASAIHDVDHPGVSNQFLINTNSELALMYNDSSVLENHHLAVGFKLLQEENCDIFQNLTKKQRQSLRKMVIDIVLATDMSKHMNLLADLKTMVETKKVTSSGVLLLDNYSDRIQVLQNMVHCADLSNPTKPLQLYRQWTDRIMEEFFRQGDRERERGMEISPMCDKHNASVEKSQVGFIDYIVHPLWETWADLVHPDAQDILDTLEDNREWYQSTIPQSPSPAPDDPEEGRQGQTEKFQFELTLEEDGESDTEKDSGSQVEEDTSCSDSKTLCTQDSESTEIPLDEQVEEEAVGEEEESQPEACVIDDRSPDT
Sequence of High affinity cGMP-specific 3',5'-cyclic phosphodiesterase 9A (O76083 whole entry): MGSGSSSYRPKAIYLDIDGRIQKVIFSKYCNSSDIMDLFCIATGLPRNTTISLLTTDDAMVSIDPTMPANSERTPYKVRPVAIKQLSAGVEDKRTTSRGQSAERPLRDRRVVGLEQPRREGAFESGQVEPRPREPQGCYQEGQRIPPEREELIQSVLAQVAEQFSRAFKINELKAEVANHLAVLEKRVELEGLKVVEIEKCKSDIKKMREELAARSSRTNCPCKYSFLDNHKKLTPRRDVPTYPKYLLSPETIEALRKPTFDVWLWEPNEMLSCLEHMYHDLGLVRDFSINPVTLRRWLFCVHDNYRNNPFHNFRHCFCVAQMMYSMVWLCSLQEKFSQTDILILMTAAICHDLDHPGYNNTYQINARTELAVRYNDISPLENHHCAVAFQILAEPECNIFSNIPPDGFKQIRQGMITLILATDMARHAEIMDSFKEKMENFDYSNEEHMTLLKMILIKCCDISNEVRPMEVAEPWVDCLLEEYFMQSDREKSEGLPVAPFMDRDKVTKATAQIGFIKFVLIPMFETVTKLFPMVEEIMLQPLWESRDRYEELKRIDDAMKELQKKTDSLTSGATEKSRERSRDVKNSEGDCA
Sequence of cGMP-dependent 3',5'-cyclic phosphodiesterase (O00408 whole entry, the tested form may be a part): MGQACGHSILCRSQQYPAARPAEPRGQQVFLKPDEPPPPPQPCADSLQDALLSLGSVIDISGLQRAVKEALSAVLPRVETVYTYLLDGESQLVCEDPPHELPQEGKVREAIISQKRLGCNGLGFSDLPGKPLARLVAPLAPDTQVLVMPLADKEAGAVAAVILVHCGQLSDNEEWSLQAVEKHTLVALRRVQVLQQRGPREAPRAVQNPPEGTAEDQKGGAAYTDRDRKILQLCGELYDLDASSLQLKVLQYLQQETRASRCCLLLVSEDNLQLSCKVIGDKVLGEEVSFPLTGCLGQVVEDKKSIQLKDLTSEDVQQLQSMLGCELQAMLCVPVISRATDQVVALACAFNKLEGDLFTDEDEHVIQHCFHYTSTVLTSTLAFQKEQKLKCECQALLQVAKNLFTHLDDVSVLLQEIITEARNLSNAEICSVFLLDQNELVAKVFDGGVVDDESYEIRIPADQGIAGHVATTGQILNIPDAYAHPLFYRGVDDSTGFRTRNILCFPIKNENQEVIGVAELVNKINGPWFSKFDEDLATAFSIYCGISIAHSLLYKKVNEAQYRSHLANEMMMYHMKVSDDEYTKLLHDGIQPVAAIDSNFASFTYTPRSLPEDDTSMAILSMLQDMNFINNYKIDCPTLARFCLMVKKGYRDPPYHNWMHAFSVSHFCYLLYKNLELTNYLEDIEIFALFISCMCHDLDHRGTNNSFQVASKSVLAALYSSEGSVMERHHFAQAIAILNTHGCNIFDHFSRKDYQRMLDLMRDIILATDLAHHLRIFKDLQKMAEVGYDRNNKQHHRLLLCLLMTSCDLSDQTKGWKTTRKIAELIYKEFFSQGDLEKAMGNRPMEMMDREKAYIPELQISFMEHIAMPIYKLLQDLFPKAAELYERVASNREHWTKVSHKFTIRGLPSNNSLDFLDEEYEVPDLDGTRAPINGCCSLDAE

IC50 [1]: 1.58 µM
Compound: CCCOc1cc(C(=O)Nc2c(F)cccc2F)ccc1OC

IC50 [1]: 3.09 µM
Compound: COc1ccc(C(=O)Nc2ccccc2C(F)(F)F)cc1OC1CCCC1

Compound: CCCCC(=O)c1ccc(OC)c(OC2CCOCC2)c1
IC50 [1]: 0.72 µM

Compound: CCCC(=O)c1ccc(OC2CCOC2)c(OC)c1 (stereo not drawn)
IC50 [1]: 24 µM

Compound: CCCC(O)c1ccc(OC2CCOCC2)c(OC)c1 (stereo not drawn)
IC50 [1]: > 100 µM and 1510 µM

Compound: CCCCC(=O)c1ccc(OC2CCOCC2)c(OC)c1
IC50 [1]: 71 µM

IC50 [1]: 0.398 µM
Compound: COc1ccc(C(=O)Nc2c(F)cccc2F)cc1OC1CCCCC1

IC50 [1]: 37.2 µM
Compound: COc1ccc(C(=O)Nc2c(F)cccc2F)cc1O

Compound: CCCCC(=O)c1ccc(OC2CCN(C(=O)OC(C)(C)C)CC2)c(OC)c1
IC50 [1]: 93 µM

Compound: CCCC(=O)c1ccc(OC2CCN(C(=O)OC(C)(C)C)CC2)c(OC)c1
IC50 [1]: 29 µM

Compound: COc1ccc(C(=O)CCC2CCCCC2)cc1OC1CCOC1 (stereo not drawn)
IC50 [1]: 1.9 µM

Compound: CCCCC(=O)c1ccc(OC2CCOC2)c(OC)c1 (stereo not drawn)
IC50 [1]: 100 µM

Compound: COc1ccc(C(=O)c2cnc3ccccc3c2)cc1OC1CCOCC1
IC50 [1]: 45 µM

Compound: CCCC(=O)c1ccc(OC)c(OC2CCOCC2)c1
IC50 [1]: 3.5 µM
IC50 [2]: > 50 µM
IC50 [3]: > 50 µM
IC50 [4]: > 50 µM
IC50 [5]: > 50 µM

Compound: CCCCC(=O)c1ccc(OC)c(OC2CCOC2)c1 (stereo not drawn)
IC50 [1]: 0.22 µM

Compound: CCCC(=O)c1ccc(OC)c(OC2CCOC2)c1 (stereo not drawn)
IC50 [1]: 0.43 µM

Compound: CC(C)(C)C(=O)c1ccc(OC(F)F)c(OC2CCOC2)c1 (stereo not drawn)
IC50 [1]: 0.41 µM

Compound: COc1ccc(C(=O)CC(C)C)cc1OC1CCOC1 (stereo not drawn)
IC50 [1]: 0.19 µM and 0.178 µM

Compound: O=C(CCc1ccccc1)c1ccc(OC(F)F)c(OC(F)F)c1
IC50 [1]: 0.82 µM

Compound: O=C(CC1CCCCC1)c1ccc(OC(F)F)c(OC(F)F)c1
IC50 [1]: 5.2 µM

Compound: O=C(CCCc1ccccc1)c1ccc(OC(F)F)c(OC(F)F)c1
IC50 [1]: 44 µM

Compound: COc1ccc(C(=O)CCC(C)C)cc1OC1CCOC1 (stereo not drawn)
IC50 [1]: 0.38 µM

Compound: COc1cc(C(CC(C)=O)c2cnc3ccccc3c2)ccc1Oc1ccccn1 (stereo not drawn)
IC50 [1]: 6 µM
IC50 [2]: > 50 µM
IC50 [3]: > 50 µM
IC50 [4]: > 50 µM
IC50 [5]: > 50 µM

Compound: COc1cc(C(CC(C)=O)c2cccnc2)ccc1O (stereo not drawn)
IC50 [1]: 80 µM

Compound: CCCCC(c1cccnc1)c1ccc(Oc2ccccn2)c(OC)c1 (stereo not drawn)
IC50 [1]: 10 µM

Compound: O=C(CCC1CCCCC1)c1ccc(OC(F)F)c(OC2CCOC2)c1 (stereo not drawn)
IC50 [1]: 1.1 µM

Compound: O=C(CCc1ccccc1)c1ccc(OC(F)F)c(OC2CCOC2)c1 (stereo not drawn)
IC50 [1]: 0.18 µM

Compound: CCCC(=O)c1ccc(OC(F)F)c(Oc2ccccn2)c1
IC50 [1]: 40 µM

Compound: CCCC(=O)c1ccc(OC(F)F)c(OC2CCOCC2)c1
IC50 [1]: 0.35 µM

Compound: CC(C)CC(=O)c1ccc(OC(F)F)c(OC2CCOC2)c1 (stereo not drawn)
IC50 [2]: > 50 µM
IC50 [3]: > 50 µM
IC50 [4]: > 50 µM
IC50 [5]: > 50 µM
IC50 (PBMC): 0.04 µM

IC50 [1]: 0.0282 µM
Compound: COc1ccc(C(=O)Nc2c(Cl)cccc2Cl)cc1OC1CCCC1

IC50 [1]: 0.646 µM
Compound: COc1ccc(C(=O)Nc2ccccc2Cl)cc1OC

Compound: CCCCC(=O)c1ccc(OC(F)F)c(OC2CCN(C(=O)OC(C)(C)C)CC2)c1
IC50 [1]: 2.2 µM

Compound: O=C(CC1CCCCC1)c1ccc(OC(F)F)c(OC2CCOC2)c1 (stereo not drawn)
IC50 [1]: 0.667 µM

Compound: O=C(CCCc1ccccc1)c1ccc(OC(F)F)c(OC2CCOC2)c1 (stereo not drawn)
IC50 [1]: 0.636 µM

Compound: COc1ccc(C(=O)CC2CCCCC2)cc1OC1CCOC1 (stereo not drawn)
IC50 [1]: 2.6 µM

Compound: CCCCC(=O)c1ccc(OC)c(OC2CCNCC2)c1
IC50 [1]: 102 µM
solubility [6]: 800 µM (≈ 233 µg/mL)

Compound: CCCCC(O)c1ccc(OC2CCOC2)c(OC)c1 (stereo not drawn)
IC50 [1]: > 100 µM and 398 µM

Compound: CCCC(O)c1ccc(OC2CCOC2)c(OC)c1 (stereo not drawn)
IC50 [1]: > 100 µM and 525 µM

Compound: CCCCC(O)c1ccc(OC)c(OC2CCOC2)c1 (stereo not drawn)
IC50 [1]: 10 µM

IC50 [1]: 0.0708 µM
Compound: COc1ccc(C(=O)Nc2c(F)cccc2F)cc1OC1CCCC1

IC50 [1]: 10.7 µM
Compound: COc1ccc(C(=O)Nc2ccccc2F)cc1OC1CCCC1

Compound: CCCCC(O)c1ccc(OC2CCOCC2)c(OC)c1 (stereo not drawn)
IC50 [1]: > 100 µM and 537 µM

Compound: CCCCC(=O)c1ccc(OC(F)F)c(OC2CCOC2)c1 (stereo not drawn)
IC50 [1]: 0.061 µM

Compound: CCCC(=O)c1ccc(OC2CCOCC2)c(OC)c1
IC50 [1]: 60 µM

Compound: CC(C)CC(=O)c1ccc(OC(F)F)c(OC2CCCC2)c1
IC50 [1]: 0.028 µM
IC50 (PBMC): 0.1 µM

Compound: COc1ccc(C(=O)CCc2ccccc2)cc1OC1CCOC1 (stereo not drawn)
IC50 [1]: 2.6 µM

Compound: CCCC(O)(c1ccc(Oc2ccccn2)c(OC)c1)c1cnc2ccccc2c1 (stereo not drawn)
IC50 [1]: 6 µM
IC50 [2]: > 50 µM
IC50 [3]: > 50 µM
IC50 [4]: 17 µM
IC50 [5]: 40 µM

Compound: COc1ccc(C(=O)CCCc2ccccc2)cc1OC1CCOC1 (stereo not drawn)
IC50 [1]: 2.29 µM

IC50 [1]: 0.2 µM
Compound: COc1ccc(C(=S)Nc2c(Cl)cccc2Cl)cc1OC1CCCC1
